How the values were obtained:
[1] = Cytotoxicity test (SRB), Hela; format: cell-based; settings: human, Hela cervical cancer cells
Protocol: Cytotoxicity of the compounds of the present invention was tested with human non-small cell lung cancer cells A549, human cervical cancer Hela cells, human skin cancer cells A431. The test was performed by referring to the method described by Rusnak et al (Rusnak D. W., et al., Cell Prolif., 2007, 40, 580-94). […] Trypsin/ethylenediamine tetraacetic acid (EDTA) were used to harvest cells in cell culture bottle. The cells were added to a 96-well cell culture plate, 4000/well (0.1 ml medium), adhering wall overnight, 0.1 ml of the diluted solution of the compounds to be tested was added, the final concentration of DMSO was 0.25%. The cell culture plate was incubated at 37° C., 5% CO2 conditions for 72 h. […] The absorption at a wavelength of 540 nm was measured. The IC50 (μM) of the compound was calculated using Logit method.

[2] = Cytotoxicity test (SRB), A549; format: cell-based; settings: human, A549 non-small cell lung cancer cells
Protocol: (§1) Cytotoxicity of the compounds of the present invention was tested with human non-small cell lung cancer cells A549, human cervical cancer Hela cells, human skin cancer cells A431. The test was performed by referring to the method described by Rusnak et al (Rusnak D. W., et al., Cell Prolif., 2007, 40, 580-94).
(§2) In Dulbecco's Modified Eagle Medium (DMEM) comprising 10% fetal bovine serum, 2 mM glutamine and non-essential amino acids, cells were cultured at 37° C. in 5% CO2 cell incubator. Trypsin/ethylenediamine tetraacetic acid (EDTA) were used to harvest cells in cell culture bottle. The cells were added to a 96-well cell culture plate, 4000/well (0.1 ml medium), adhering wall overnight, 0.1 ml of the diluted solution of the compounds to be tested was added, the final concentration of DMSO was 0.25%. The cell culture plate was incubated at 37° C., 5% CO2 conditions for 72 h. The change of cellular morphology was observed under microscope, and then 50 μl of 50% (mass/volume) trichloroacetic acid (TCA) was added to each well to fix cells. The final concentration of TCA was 10%. It stood for 5 min, than was placed in 4° C. refrigerator for 1 h, the wells of the culture plate were washed with deionized water for 5 times to remove TCA, drained, dried in air until no wet trace was observed. 100 μl of 0.4% (mass/volume) SRB was added to each well, stood at room temperature for 10 min. The liquid in each well was discarded, and then the wells were washed with 1% acetic acid for 5 times, dried in air, extracted with 150 μl of 10 mM Tris base (trihydroxymethylaminomethane, pH 10.5). The absorption at a wavelength of 540 nm was measured. The IC50 (μM) of the compound was calculated using Logit method.

[3] = tested on: human colon cancer HT 29 transplanted tumor; assay: Nude mice transplanted tumor test; format: in vivo, female Balb/cA nude mice; parameters: key to d21 Vave ± SD (average tumor volume): tumor volume TV = ½×a×b² (a, b = major, minor diameter), in mm³; settings: for Dead animal number / inhibition in vivo at 80 mg/kg / d21 Wave ± SD (average bodyweight of nude mice) / d21 Vave ± SD (average tumor volume) / d21 RTV ± SD (relative tumor volume): 80 mg/kg intragastrically each day for 20 days; for Dead animal number: dead/total animals; for inhibition in vivo at 80 mg/kg: Mus musculus, HT-29, po, 504 h, (1−T/C)×100%, read-out: Tumor inhibition rate d21 (%); for inhibition in vivo at 80 mg/kg / d21 Wave ± SD (average bodyweight of nude mice) / d21 Vave ± SD (average tumor volume) / d21 RTV ± SD (relative tumor volume): d21; for d0 Wave ± SD (average bodyweight of nude mice): d0, at grouping before administration (baseline); for d21 Vave ± SD (average tumor volume): HT 29 in nude mice; for d21 RTV ± SD (relative tumor volume): RTV=Vt/V0; for Activity of inhibiting HT-29 transplanted tumor in vivo (in words): 80 mg/kg, compared with positive control Sunitinib
Protocol: The nude mice transplanted tumor test used female Balb/cA nude mice, and tumor strains were human colon cancer HT 29 strains.
Under sterile condition, eugonic tumor tissues stage were cut into pieces of about 1.5 mm^3, and inoculated at right axillary fossa of the nude mice. The transplanted tumor diameter was measured by vernier caliper, and the animals were randomly grouped after the tumors grew to about 120 mm^3. The positive control group and the compounds group in a dosage of 80 mg/kg were administered intragastrically each day for consecutive 20 days. The negative control group was given equivalent amount of injection water containing 0.1% Tween 80. Tumor diameters and the bodyweight of mice were measured 2-3 times every week. The evaluation indexes observed in the test include relative tumor proliferation rate, bodyweight and general states. The formulation for calculating tumor volume (TV) is: TV=½×a×b^2, wherein a, b represent major diameter and minor diameter of tumor; Relative tumor volume (RTV) was calculated according the results of measurement by the following formula: RTV=Vt/V0, wherein V0 is tumor volume measured when dividing groups for administration, and Vt is tumor volume measured after each administration.

[4] = Cytotoxicity test (SRB), A431; format: cell-based; settings: human, A431 skin cancer cells
Protocol: as §1, §2

[5] = tested on: arterial ring angiogenesis in rats; assay: Inhibitory actions on arterial ring angiogenesis in rats; format: cell-based; settings: Rattus norvegicus, area covered by micrangiums vs control well, read-out: Inhibitory rate (%); for inhibition at 0.2 µg/mL: 0.2 μg/ml; for inhibition at 1 µg/mL: 1 μg/ml; for inhibition at 5 µg/mL: 5 μg/ml
Protocol: This experiment was conducted by referring to the method described by R. F. Nicosia et al (Nicosia, R. F., et al. Am J Pathol., 1997, 151, 1379-1386). Rats were executed by cervical dislocation. The thoracic aorta was carefully separated, and placed in a container with physiological saline. The excess tissues were carefully cut off. The blood vessels were cut with a pair of ophthalmic scissors to form 1 mm thick vascular ring slices. To a pre-cooled 96-well cell culture plate, one separated vascular ring was placed in the center of each well. 70 μl of pre-molten Matrigel was carefully added to cover the vascular ring, which was incubated at 37° C. for 1 h so as to solidify it. […] The sample was placed in incubator for conventional culture, and each compound was tested at least in two repeated wells, and each test was repeated twice. […] The fresh culture medium was replaced every 3 days, and the drug was changed at the same time. The survival status of vascular rings was observed under microscope, and pictures were taken at the same time. Image Pro Plus software was used to calculate the area covered by micrangiums. The average inhibition rate was calculated by using the formula: inhibition rate (%)=(area of control well−area of drug well)/area of control well×100%.

| SMILES | IC50 at 72 h [1] [µM] | IC50 at 72 h [2] [µM] | Dead animal number [3] | inhibition in vivo at 80 mg/kg [3] [%] | d0 Wave ± SD (average bodyweight of nude mice) [3] | d21 Wave ± SD (average bodyweight of nude mice) [3] | d21 Vave ± SD (average tumor volume) ([3]; in mm³ (unit assumed)) | d21 RTV ± SD (relative tumor volume) [3] | IC50 at 72 h [4] [µM] | inhibition at 0.2 µg/mL [5] [%] | inhibition at 1 µg/mL [5] [%] | inhibition at 5 µg/mL [5] [%] | Activity of inhibiting HT-29 transplanted tumor in vivo (in words) [3] | d21 Vave ± SD (average tumor volume) [3] |
| --- | --- | --- | --- | --- | --- | --- | --- | --- | --- | --- | --- | --- | --- | --- |
| CCN(CC)CCC(=O)Nc1c(C)[nH]c(/C=C2\C(=O)Nc3ccc(NS(C)(=O)=O)cc32)c1C [Compound 8, N-{5-[5-methylsulfonylamino-2-oxo-1,2-dihydro-indol-(3Z)-ylidenemethyl]-2,4-dimethyl-1H-pyrrol-3-yl}-3-(N,N-diethylamino)propionamide] | > 30 | > 30 | 0/6 | 78.9 | 19.2 ± 0.32 | 17.8 ± 0.65 | 186.0 ± 53.1 | 1.52 ± 0.56 | > 30 | 94 | 100 | 100 | – | – |
| CCN1CCN(CCC(=O)Nc2c(C)[nH]c(/C=C3\C(=O)Nc4ccc(F)cc43)c2C)CC1 [Compound 10, N-{5-[5-fluoro-2-oxo-1,2-dihydro-indol-(3Z)-ylidenemethyl]-2,4-dimethyl-1H-pyrrol-3-yl}-3-(4-ethylpiperazin-1-yl)propionamide] | > 30 | > 30 | 0/6 | 86.4 | 18.7 ± 1.10 | 18.9 ± 0.97 | 112.8 ± 36.4 | 0.98 ± 0.34 | > 30 | 98 | 100 | 100 | inhibitory activity comparable to the positive control Sunitinib | – |
| Cc1[nH]c(/C=C2\C(=O)Nc3ccc(F)cc32)c(C)c1NC(=O)CCN1CCN(C)CC1 [Compound 11, N-{5-[5-fluoro-2-oxo-1,2-dihydro-indol-(3Z)-ylidenemethyl]-2,4-dimethyl-1H-pyrrol-3-yl}-3-(4-methylpiperazin-1-yl)propionamide] | > 30 | > 30 | 0/6 | 88.5 | 18.5 ± 0.55 | 20.5 ± 0.49 | 96.7 ± 35.4 | 0.83 ± 0.52 | > 30 | 99 | 100 | 100 | inhibitory activity comparable to the positive control Sunitinib | – |
| Cc1[nH]c(/C=C2\C(=O)Nc3ccc(F)cc32)c(C)c1NC(=O)CN1CCCCC1 [Compound 16, N-{5-[5-fluoro-2-oxo-1,2-dihydro-indol-(3Z)-ylidenemethyl]-2,4-dimethyl-1H-pyrrol-3-yl}-2-(piperidin-1-yl)acetamide] | > 30 | > 30 | 0/6 | 68.7 | 19.5 ± 0.46 | 18.5 ± 0.59 | 268.4 ± 33.8 | 2.25 ± 0.37 | 6.25 | 91 | 100 | 100 | – | – |
| Cc1[nH]c(/C=C2\C(=O)Nc3ccc(F)cc32)c(C)c1NC(=O)CN1CCCC1 [Compound 17, N-{5-[5-fluoro-2-oxo-1,2-dihydro-indol-(3Z)-ylidenemethyl]-2,4-dimethyl-1H-pyrrol-3-yl}-2-(tetrahydropyrrol-1-yl)acetamide] | > 30 | > 30 | 0/6 | 63.5 | 18.9 ± 0.58 | 19.2 ± 0.82 | – | 2.63 ± 0.53 | > 30 | 89 | 100 | 100 | – | 324.5 ± 39.4 |
| CCN1CCN(CC(=O)Nc2c(C)[nH]c(/C=C3\C(=O)Nc4ccc(F)cc43)c2C)CC1 [Compound 18, N-{5-[5-fluoro-2-oxo-1,2-dihydro-indol-(3Z)-ylidenemethyl]-2,4-dimethyl-1H-pyrrol-3-yl}-2-(4-ethylpiperazin-1-yl)acetamide] | 4.15 | > 30 | 0/6 | 90.1 | 19.1 ± 0.48 | 18.9 ± 0.69 | 86.2 ± 45.3 | 0.73 ± 0.45 | > 30 | 99 | 100 | 100 | – | – |
| CCN(CC)CC(=O)Nc1c(C)[nH]c(/C=C2\C(=O)Nc3ccc(Cl)cc32)c1C [Compound 21, N-{5-[5-chloro-2-oxo-1,2-dihydro-indol-(3Z)-ylidenemethyl]-2,4-dimethyl-1H-pyrrol-3-yl}-2-(N,N-diethylamino)acetamide] | > 30 | > 30 | 0/6 | 89 | 18.9 ± 0.47 | 19.3 ± 0.76 | 94.3 ± 37.2 | 0.79 ± 0.63 | > 30 | 95 | 100 | 100 | inhibitory activity comparable to the positive control Sunitinib | – |

Source: patent publication US8637681B2, “Pyrrolyl substituted dihydroindol-2-one derivatives, preparation methods and uses thereof” (Qilu Pharmaceutical Co., Ltd., priority 2010, dated 2014)
